Experimental data published in article PMC7116137 (Molecular pharmacology, 2020).

Tests used:
[1] = biological target: complex of dopamine D1-receptor and wild-type A1R (Homo sapiens, UniProt P21728+P30542); experiment: BRET between D1R-NLuc and eYFP-tagged A1-receptor in HEK293 cells; type: cell-based; conditions: incubation with ligand 10 μM, response estimated at saturation
wild-type A1R = biological target: T1, wild-type A1R (Homo sapiens, UniProt P30542); experiment: [35S]GTPγS binding to membranes of HEK293 cells; type: biochemical; conditions: agonist-stimulated, curve fit; wt A1R
T1 sequence (P30542 1-326): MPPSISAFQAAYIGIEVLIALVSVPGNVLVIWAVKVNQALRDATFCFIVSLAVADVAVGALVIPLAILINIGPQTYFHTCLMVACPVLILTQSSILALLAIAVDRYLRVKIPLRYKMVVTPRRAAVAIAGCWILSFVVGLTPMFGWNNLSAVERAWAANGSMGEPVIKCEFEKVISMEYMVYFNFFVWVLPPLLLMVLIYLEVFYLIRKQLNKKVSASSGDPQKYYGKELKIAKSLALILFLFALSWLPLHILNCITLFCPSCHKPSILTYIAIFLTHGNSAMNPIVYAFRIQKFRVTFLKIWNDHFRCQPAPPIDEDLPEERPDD

complex of dopamine D1-receptor and wild-type A1R, sequence (P21728 whole entry, one chain of several): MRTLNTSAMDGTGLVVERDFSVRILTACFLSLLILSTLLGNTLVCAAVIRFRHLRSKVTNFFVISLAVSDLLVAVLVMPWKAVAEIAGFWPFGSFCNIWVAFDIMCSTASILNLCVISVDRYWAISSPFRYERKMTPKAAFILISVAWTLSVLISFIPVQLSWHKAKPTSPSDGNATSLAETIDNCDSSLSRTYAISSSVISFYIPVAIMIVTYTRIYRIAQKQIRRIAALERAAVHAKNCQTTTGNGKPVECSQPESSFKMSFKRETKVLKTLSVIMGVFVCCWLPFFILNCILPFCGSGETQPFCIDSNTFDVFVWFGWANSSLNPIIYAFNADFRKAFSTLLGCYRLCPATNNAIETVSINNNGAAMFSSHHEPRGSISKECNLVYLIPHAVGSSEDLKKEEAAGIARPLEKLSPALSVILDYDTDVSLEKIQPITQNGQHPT

Maximum BRET signal [1]: 218 ± 64 milli BRET
maximal [35S]GTPγS binding (95% confidence interval) (wild-type A1R): 91.5 to 101.3 fmol/mg
Compound: OC[C@H]1O[C@@H](n2cnc3c(NC4CCCC4)ncnc32)[C@H](O)[C@@H]1O [CPA, N6-cyclopentyladenosine]
